Assay results as given in BindingDB's records for doi:10.1021/acs.jmedchem.3c00926 (Yale University, 2023).

The compounds below were run against T1, Signal transducer and activator of transcription 3 (Homo sapiens, UniProt P40763) (assay: Inhibition of IL-23 induced STAT3 phosphorylation in human KIT225 cells by AlphaLISA assay).
T1 sequence (P40763 whole entry): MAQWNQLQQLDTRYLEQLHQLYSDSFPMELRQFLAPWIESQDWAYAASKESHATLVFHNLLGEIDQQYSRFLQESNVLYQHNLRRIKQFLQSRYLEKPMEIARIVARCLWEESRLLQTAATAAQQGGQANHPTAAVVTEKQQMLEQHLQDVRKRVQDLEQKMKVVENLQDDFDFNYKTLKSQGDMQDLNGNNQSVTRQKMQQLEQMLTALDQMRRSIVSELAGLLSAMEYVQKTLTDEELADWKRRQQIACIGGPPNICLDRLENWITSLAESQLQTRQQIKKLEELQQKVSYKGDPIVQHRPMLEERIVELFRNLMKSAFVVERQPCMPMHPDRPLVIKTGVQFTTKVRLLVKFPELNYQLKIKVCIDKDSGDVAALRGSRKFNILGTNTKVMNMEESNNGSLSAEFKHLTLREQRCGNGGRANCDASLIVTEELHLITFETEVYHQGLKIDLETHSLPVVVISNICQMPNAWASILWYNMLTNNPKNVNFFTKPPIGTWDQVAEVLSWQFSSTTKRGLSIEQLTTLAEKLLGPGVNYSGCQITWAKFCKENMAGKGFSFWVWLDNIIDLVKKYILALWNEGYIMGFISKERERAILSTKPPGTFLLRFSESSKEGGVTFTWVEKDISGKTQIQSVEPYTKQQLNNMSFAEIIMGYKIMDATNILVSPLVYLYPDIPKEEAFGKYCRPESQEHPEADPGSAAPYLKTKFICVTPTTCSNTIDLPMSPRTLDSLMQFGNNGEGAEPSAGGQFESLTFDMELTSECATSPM
In the case of [2H]C([2H])([2H])NC(=O)c1nnc(NC(=O)C2CC2)cc1Nc1cccc(-c2ncn(C)n2)c1OC [Bms-986165], the IC50 is reported as 89 nM. In the case of NC(=O)c1ccccc1Nc1cc(Nc2ccc(F)cn2)ncc1C(N)=O, the IC50 is reported as 180 nM. For CNC(=O)c1cnc(Nc2ccc(C#N)cn2)cc1Nc1cccc(-c2ncn(C)n2)c1OC, the IC50 was 13 nM. In the case of [2H]C([2H])([2H])NC(=O)c1nnc(NC(=O)C2CC2)cc1Nc1ccccc1S(C)(=O)=O, the IC50 is reported as 15 nM. N#Cc1cc(Nc2cc(NC3CC3)c3ncc(C(N)=O)n3n2)cc(C(F)(F)F)c1 gave an IC50 of 8200 nM. Compound CNC(=O)c1cnc(Nc2ccc(F)cn2)cc1Nc1ccccc1S(C)(=O)=O has an IC50 of 230 nM.

These compounds were tested against T1, Signal transducer and activator of transcription 3 (assay: Inhibition of IL-23 induced STAT3 phosphorylation in human Jurkat cells incubated for 30 mins by microplate reader analysis).
Work on NC(=O)c1ccccc1Nc1cc(Nc2ccc(F)cn2)ncc1C(N)=O yielded an IC50 of 89 nM.
